Data: patent USRE47954E1, “Combination therapy with peptide epoxyketones” (priority 2008, dated 2020)
Where two headings read alike, the source gives them in different places.

Legend:
[1] = test system: relapsed multiple myeloma patients; assay: Phase Ib dose escalation study of carfilzomib plus lenalidomide and low-dose dexamethasone; format: in vivo; conditions: preliminary
Text: Within the first three cohorts, seventeen patients were evaluable for response and toxicity.

[2] = test system: RL human lymphoma cells; assay: RL human lymphoma xenograft, Example 1 (FIG. 1); format: in vivo, Immunocompromised mice (BNX); conditions: Compound 1 IV Days 1 and 2 each week + SAHA IP Days 1-5 each week; two-way ANOVA, Bonferroni
Procedure: Immunocompromised mice (BNX, Charles River Laboratories) were challenged with subcutaneous administration of RL human lymphoma cells (1×10^7/mouse) on the right flank in a total volume of 0.1 mL phosphate buffered saline (PBS). When tumors were approximately 50 mm^3 in size (as indicated by the arrow in FIG. 1), mice were randomized to treatment groups (9 mice/group). Compound 1 was administered intravenously (IV) in a solution of 10% (w/v) sulfobutylether-betacyclodextrin in aqueous 10 mM citrate buffer pH 3.5. Administration was given on Days 1 and 2 each week. SAHA was formulated in 100% DMSO and administered intraperiotoneally (IP) on Days 1-5 each week. ***=P<0.001 (Compound 1+SAHA vs. Vehicle) by two-way ANOVA and Bonferroni post-hoc comparisons.

[3] = test system: ES2 tumors; assay: ES2 ovarian xenograft (FIG. 10); format: in vivo, BNX mice; conditions: in combination with vorinostat (50 mg/kg), ovarian cancer model
Procedure: (§1) Statistical significance was achieved when p<0.05.
(§2) The effect of the combination of Compound 1 (3 mg/kg) and vorinostat (50 mg/kg) (n=8/group) on established RL tumors is shown in FIG. 9 (arrow indicates start of dosing period). The effect of the combination of Compound 1 (3 mg/kg) and vorinostat (50 mg/kg) (n=8/group) on established ES2 tumors. **, P<0.01; and ***, P<0.001 vs monotherapy and vehicle is shown in FIG. 10 (arrow indicates start of dosing period).

[4] = test system: A549 non-small cell lung cancer xenograft; assay: A549 non-small cell lung cancer xenograft model (FIG. 4, 6, 7); format: in vivo, BNX mice
Procedure: (§3) Xenograft studies: Tumors were established by subcutaneous (s.c.) injection of cell lines (passage number <9 and viability >95% at the time of implantation) in the right flank of BNX mice (n=8/9 per group). RL (0.1 mL) cell suspensions containing 1×10^7 cells. 5×10^6 cell suspension (0.1 mL) were injected in case of HT-29, ES2 and A549 cells. Mice were randomized into treatment groups and dosing initiated when tumors size was approximately 100 mm^3. In all treatment groups, tumors were measured three times weekly by recording the longest perpendicular diameters and tumor volumes were calculated using the equation V (mm^3)=(length×width^2)/2.
(§4) Statistical analysis: For comparisons of treatment groups, a two-way ANOVA followed by Bonferroni post hoc analysis using GraphPad Prism Software (version 4.01) was performed. Statistical significance was achieved when p<0.05.

[5] = test system: RL tumors; assay: RL lymphoma xenograft, Example 2 (FIG. 9); format: in vivo, BNX mice
Procedure: as §1, §2

[6] = test system: MM1.S (multiply myeloma, dexamethasone sensitive) cells; assay: Cell titer glo viability, combination index with melphalan (FIG. 11); format: cell-based; conditions: Compound 1 6.58 nM + melphalan 11.1, 7.4, 4.9 and 3.3 μM; melphalan pretreatment 24 hours, then Compound 1 24 hours
Procedure: Compound 1 was tested at 6.58 nM in combination with melphalan at four different doses: 11.1, 7.4, 4.9 and 3.3 μM. MM1.S (multiply myeloma, dexamethasone sensitive) cells were plated at 200,000 cells/mL in 45 μL then pretreated with melphalan for 24 hours. Compound 1 was then added and the cells were incubated for an additional 24 hours at 6.58 nM. A 1:1 ratio of Cell titer glo solution was then added to the cell samples and read for viability. Combination index values were calculated using the Calcusyn program where values <0.9=synergy, 0.9-1.0=additive and >1.1=antagonistic.

[7] = test system: HT29 colorectal xenograft; assay: HT29 colorectal xenograft model (FIG. 3)
Procedure: as §3, §4

[8] = Procedure: Toxicity Studies: 4-6 weeks old female BNX mice were treated with chemotherapeutic agents of multiple classes as monotherapy or in combination with carfilzomib. Two weeks toxicity studies were performed at doses and dose schedules as mentioned in the figure legend. Toxicity was measured as body weight loss three times a week.
The dose schedule as shown in FIG. 2A was Doxil day 1 (iv), after one hour Compound 1 day 1, 2 (iv).
The dose schedule as shown in FIG. 5A was docetaxel day 1 (iv), after one hour Compound 1 day 1, 2 (iv).

[9] = combination Compound 1 (5 mg/kg) + Doxil (3 mg/kg)
[10] = combination Compound 1 at MTD (5 mg/kg) + docetaxel (5 mg/kg), FIG. 6
[11] = combination Compound 1 at sub-MTD (3 mg/kg) + sub-MTD docetaxel (5 mg/kg), FIG. 7
[12] = combination of Compound 1 and vorinostat

CC(C)C[C@H](NC(=O)[C@H](CCc1ccccc1)NC(=O)CN1CCOCC1)C(=O)N[C@@H](Cc1ccccc1)C(=O)N[C@@H](CC(C)C)C(=O)[C@@]1(C)CO1 [Compound 1, carfilzomib]
maximum tolerated dose (MTD) ([1]; first three cohorts): not yet reached | Responses [1]: durable | tumor volume, P (Compound 1+SAHA vs. Vehicle) [2]: < 0.001 | anti-tumor property of combination [3]: effective anti-tumor property | tumor size, p vs. control or Doxil alone [4, 9]: < 0.001 | tumor size, significance vs. carfilzomib alone [4, 9]: No significance | tumor size, p vs. carfilzomib alone [4, 10]: < 0.05 | tumor size, p vs. control [4, 10]: < 0.001 | tumor size, p vs. carfilzomib and docetaxel [4, 11]: < 0.01 | tumor size, p vs. control [4, 11]: < 0.001 | A549 tumor growth ([4]; combination with docetaxel, compared to vehicle controls or either single agent): significant reduction | anti-tumor effect of combination ([4]; in combination with docetaxel at sub-MTD doses, human lung cancer model): synergistic anti-tumor effect | RL tumor growth, p vs. Compound 1 or vorinostat alone [5, 12]: < 0.01 | RL tumor growth, p vs. control [5, 12]: < 0.001 | lymphoma (RL) tumor growth ([5]; combination with vorinostat, compared to vehicle controls or either single agent, Compound 1 3 mg/kg, vorinostat 50 mg/kg): significant reduction | anti-tumor effect of combination ([5]; in combination with vorinostat, lymphoma model): synergistic anti-tumor effect | combination effect (combination index, Calcusyn) [6]: synergistic and additive effects | anti-tumor effect of combination ([7]; Compound 1 and Doxil at sub-MTD doses, solid tumor model): synergistic anti-tumor effect | tumor burden ([7]; Compound 1 and Doxil combination, HT-29 xenograft model): significantly reduced tumor burden | anti-tumor activity ([7]; Compound 1 at MTD (5 mg/kg) and sub-MTD of Doxil (3 mg/kg)): increased anti-tumor activity | tumor size, p vs. Doxil alone [7, 9]: < 0.01 | tumor size, p vs. control or carfilzomib alone [7, 9]: < 0.001 | MTD ([8]; carfilzomib QDx2 (iv)): 5 mg/kg

CC(=O)O[C@@]12CO[C@@H]1C[C@H](O)[C@@]1(C)C(=O)[C@H](O)C3=C(C)[C@@H](OC(=O)[C@H](O)[C@@H](NC(=O)OC(C)(C)C)c4ccccc4)C[C@@](O)([C@@H](OC(=O)c4ccccc4)[C@H]21)C3(C)C [docetaxel, reference compound]
MTD ([8]; docetaxel in combination with carfilzomib, docetaxel day 1 (iv), Compound 1 day 1, 2 (iv)): 10 mg/kg
